Source: patent US20110257161A1 (priority 2008, published 2011)
Counter-ions that a name gives are not always drawn.

Target: α7-subtype of nicotinic receptors (Rattus norvegicus, UniProt Q05941)
Assay: biochemical
Type: binding

α7-subtype of nicotinic receptors, sequence (Q05941 23-502): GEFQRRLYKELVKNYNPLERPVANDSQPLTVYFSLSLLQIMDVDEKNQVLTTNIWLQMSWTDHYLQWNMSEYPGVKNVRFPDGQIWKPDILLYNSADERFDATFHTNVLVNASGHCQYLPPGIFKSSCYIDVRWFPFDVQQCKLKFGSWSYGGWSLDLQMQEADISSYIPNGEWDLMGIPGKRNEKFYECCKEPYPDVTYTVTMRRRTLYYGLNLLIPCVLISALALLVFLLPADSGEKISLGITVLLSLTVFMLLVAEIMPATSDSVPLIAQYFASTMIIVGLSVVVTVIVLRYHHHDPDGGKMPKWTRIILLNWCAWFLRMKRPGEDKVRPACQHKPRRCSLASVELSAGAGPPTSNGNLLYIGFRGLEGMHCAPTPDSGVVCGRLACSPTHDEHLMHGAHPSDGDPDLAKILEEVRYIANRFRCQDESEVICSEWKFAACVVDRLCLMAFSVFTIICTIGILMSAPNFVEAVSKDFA

Structure (SMILES) | IC50 [nM]
O=c1c2ccccc2nnn1-c1ccc(N2CCN3CCC2CC3)cc1 [Compound D1, 3-[4-(1,4-Diaza-bicyclo[3.2.2]non-4-yl)-phenyl]-3H-benzo[d][1,2,3]triazin-4-one fumaric acid salt] | 22
O=c1c2ccccc2ncn1-c1ccc(N2CCN3CCC2CC3)cc1 [Compound E1, 3-[4-(1,4-Diaza-bicyclo[3.2.2]non-4-yl)-phenyl]-3H-quinazolin-4-one fumaric acid salt] | 130
